Source: PubChem BioAssay (NCI)
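Following 48 hours of exposure in 96-well plates, responses at five concentrations were used to interpolate endpoints linearly. At the TGI there is no net growth.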 Where a SMILES comes first, the peptide text is derived from it. Bridges are numbered along the chain shown (N, C = ends). [ ]: non-standard residue; d: D form. The star is where a group is joined. Cya = N[CH](CS(=O)(=O)O)C(=O)O; X49 = CC(C)CCCCCCCC(O)CC(=O)*; GABA = NCCCC(=O)O

What was measured:
Assay in all cases: DTP human tumour cell line panel, 48 h
UO-31 renal = system: UO-31 renal
SW-620 colon = system: SW-620 colon
NCI/ADR-RES ovarian = system: NCI/ADR-RES ovarian
TK-10 renal = system: TK-10 renal
DU-145 prostate = system: DU-145 prostate
SF-295 CNS = system: SF-295 CNS
HCT-116 colon = system: HCT-116 colon
MDA-MB-231 breast = system: MDA-MB-231 breast
MALME-3M melanoma = system: MALME-3M melanoma
A549 NSCLC = system: A549 NSCLC
OVCAR-3 ovarian = system: OVCAR-3 ovarian
HOP-92 NSCLC = system: HOP-92 NSCLC
M14 melanoma = system: M14 melanoma
EKVX NSCLC = system: EKVX NSCLC
SK-MEL-5 melanoma = system: SK-MEL-5 melanoma
HT29 colon = system: HT29 colon
HCT-15 colon = system: HCT-15 colon
RXF 393 renal = system: RXF 393 renal
K-562 leukemia = system: K-562 leukemia
SK-MEL-28 melanoma = system: SK-MEL-28 melanoma
COLO 205 colon = system: COLO 205 colon
KM12 colon = system: KM12 colon
HCC-2998 colon = system: HCC-2998 colon
SK-OV-3 ovarian = system: SK-OV-3 ovarian
CAKI-1 renal = system: CAKI-1 renal
MDA-N = system: MDA-N
OVCAR-4 ovarian = system: OVCAR-4 ovarian
NCI-H23 lung = system: NCI-H23 lung
OVCAR-5 ovarian = system: OVCAR-5 ovarian
MCF7 breast = system: MCF7 breast
T-47D breast = system: T-47D breast
ACHN renal = system: ACHN renal
IGROV1 ovarian = system: IGROV1 ovarian
HOP-62 NSCLC = system: HOP-62 NSCLC
SK-MEL-2 melanoma = system: SK-MEL-2 melanoma
UACC-62 melanoma = system: UACC-62 melanoma
PC-3 prostate = system: PC-3 prostate
HS 578T breast = system: HS 578T breast
NCI-H226 lung = system: NCI-H226 lung
RPMI-8226 leukemia = system: RPMI-8226 leukemia
BT-549 breast = system: BT-549 breast
LOX IMVI melanoma = system: LOX IMVI melanoma
SN12C renal = system: SN12C renal
MDA-MB-435 = system: MDA-MB-435
OVCAR-8 ovarian = system: OVCAR-8 ovarian
SF-539 CNS = system: SF-539 CNS
SR leukemia = system: SR leukemia
A498 renal = system: A498 renal
UACC-257 melanoma = system: UACC-257 melanoma
U251 CNS = system: U251 CNS
SNB-19 CNS = system: SNB-19 CNS
NCI-H522 lung = system: NCI-H522 lung
SNB-75 CNS = system: SNB-75 CNS
786-0 renal = system: 786-0 renal
CCRF-CEM leukemia = system: CCRF-CEM leukemia
MOLT-4 leukemia = system: MOLT-4 leukemia
SF-268 CNS = system: SF-268 CNS
HL-60(TB) leukemia = system: HL-60(TB) leukemia
NCI-H460 lung = system: NCI-H460 lung

CC1OC2=N[C@@H]1C(=O)N[C@@H](Cc1ccccc1)C1=N[C@H](C(=O)N[C@@H](Cc3ccccc3)C3=N[C@H](C(=O)N[C@H]2Cc2ccccc2)C(C)O3)C(C)O1 (stereo partly drawn)
TGI (UO-31 renal): > 100 µM | TGI (SW-620 colon): > 100 µM | TGI (NCI/ADR-RES ovarian): > 100 µM | TGI (TK-10 renal): 69.5 µM | TGI (DU-145 prostate): > 100 µM | TGI (SF-295 CNS): > 100 µM | TGI (HCT-116 colon): > 100 µM | TGI (MDA-MB-231 breast): 72 µM | TGI (MALME-3M melanoma): 57.6 µM | TGI (A549 NSCLC): > 100 µM | TGI (OVCAR-3 ovarian): 75.8 µM | TGI (HOP-92 NSCLC): 59.7 µM | TGI (M14 melanoma): 56.4 µM | TGI (EKVX NSCLC): > 100 µM | TGI (SK-MEL-5 melanoma): 57.8 µM | TGI (HT29 colon): 52.5 µM | TGI (HCT-15 colon): > 100 µM | TGI (RXF 393 renal): > 100 µM | TGI (K-562 leukemia): 68.7 µM | TGI (SK-MEL-28 melanoma): 69.2 µM | TGI (COLO 205 colon): 34.4 µM | TGI (KM12 colon): > 100 µM | TGI (HCC-2998 colon): > 100 µM | TGI (SK-OV-3 ovarian): > 100 µM | TGI (CAKI-1 renal): 88.6 µM | TGI (MDA-N): > 100 µM | TGI (OVCAR-4 ovarian): > 100 µM | TGI (NCI-H23 lung): > 100 µM | TGI (OVCAR-5 ovarian): 68.5 µM | TGI (MCF7 breast): > 100 µM | TGI (T-47D breast): > 100 µM | TGI (ACHN renal): > 100 µM | TGI (IGROV1 ovarian): > 100 µM | TGI (HOP-62 NSCLC): > 100 µM | TGI (SK-MEL-2 melanoma): 52.3 µM | TGI (UACC-62 melanoma): 80.1 µM | TGI (PC-3 prostate): 73.2 µM | TGI (HS 578T breast): 65.8 µM | TGI (NCI-H226 lung): 93.9 µM | TGI (RPMI-8226 leukemia): 34.1 µM | TGI (BT-549 breast): > 100 µM | TGI (LOX IMVI melanoma): 39.4 µM | TGI (SN12C renal): > 100 µM | TGI (MDA-MB-435): 81.7 µM | TGI (OVCAR-8 ovarian): > 100 µM | TGI (SF-539 CNS): 47.4 µM | TGI (SR leukemia): 62.6 µM | TGI (A498 renal): 91.9 µM | TGI (UACC-257 melanoma): 71.2 µM

COc1cc2c(cc1OC)C1c3ccccc3CCCN1CC2 (stereo not drawn)
TGI (UO-31 renal): > 100 µM | TGI (U251 CNS): > 100 µM | TGI (SNB-19 CNS): > 100 µM | TGI (SW-620 colon): > 100 µM | TGI (NCI/ADR-RES ovarian): > 100 µM | TGI (TK-10 renal): > 100 µM | TGI (DU-145 prostate): > 100 µM | TGI (NCI-H522 lung): > 100 µM | TGI (SF-295 CNS): > 100 µM | TGI (HCT-116 colon): > 100 µM | TGI (MDA-MB-231 breast): > 100 µM | TGI (MALME-3M melanoma): > 100 µM | TGI (A549 NSCLC): > 100 µM | TGI (SNB-75 CNS): > 100 µM | TGI (OVCAR-3 ovarian): > 100 µM | TGI (HOP-92 NSCLC): > 100 µM | TGI (M14 melanoma): > 100 µM | TGI (EKVX NSCLC): > 100 µM | TGI (SK-MEL-5 melanoma): > 100 µM | TGI (HT29 colon): > 100 µM | TGI (HCT-15 colon): > 100 µM | TGI (K-562 leukemia): > 100 µM | TGI (786-0 renal): > 100 µM | TGI (SK-MEL-28 melanoma): > 100 µM | TGI (COLO 205 colon): > 100 µM | TGI (KM12 colon): > 100 µM | TGI (HCC-2998 colon): > 100 µM | TGI (SK-OV-3 ovarian): > 100 µM | TGI (CAKI-1 renal): > 100 µM | TGI (MDA-N): > 100 µM | TGI (OVCAR-4 ovarian): > 100 µM | TGI (CCRF-CEM leukemia): > 100 µM | TGI (NCI-H23 lung): > 100 µM | TGI (OVCAR-5 ovarian): > 100 µM | TGI (MCF7 breast): > 100 µM | TGI (T-47D breast): > 100 µM | TGI (ACHN renal): > 100 µM | TGI (IGROV1 ovarian): > 100 µM | TGI (HOP-62 NSCLC): > 100 µM | TGI (SK-MEL-2 melanoma): > 100 µM | TGI (UACC-62 melanoma): > 100 µM | TGI (PC-3 prostate): > 100 µM | TGI (HS 578T breast): > 100 µM | TGI (NCI-H226 lung): > 100 µM | TGI (RPMI-8226 leukemia): > 100 µM | TGI (BT-549 breast): > 100 µM | TGI (LOX IMVI melanoma): > 100 µM | TGI (SN12C renal): > 100 µM | TGI (MOLT-4 leukemia): > 100 µM | TGI (MDA-MB-435): > 100 µM | TGI (SF-268 CNS): > 100 µM | TGI (OVCAR-8 ovarian): > 100 µM | TGI (SF-539 CNS): > 100 µM | TGI (SR leukemia): > 100 µM | TGI (A498 renal): > 100 µM | TGI (HL-60(TB) leukemia): > 100 µM | TGI (UACC-257 melanoma): > 100 µM

CC(C)CCCCCCCC(O)CC(=O)NC(CS(=O)(=O)O)C(=O)NC(CC(C)C)C(=O)NCCCC(=O)NC(Cc1cnc[nH]1)C(=O)NC(C)C(=O)NC1C(=O)NC(C(C)O)C(=O)NC(Cc2cnc[nH]2)C(=O)NC(C)C(=O)NC(C(C)O)C(=O)OC1C (stereo not drawn) (X49-[Cya]L[GABA]HATTHAT; ester 6-C; configuration not given here)
TGI (UO-31 renal): > 25 µM | TGI (U251 CNS): > 25 µM | TGI (SNB-19 CNS): > 25 µM | TGI (SW-620 colon): > 25 µM | TGI (NCI/ADR-RES ovarian): > 25 µM | TGI (TK-10 renal): > 25 µM | TGI (DU-145 prostate): > 25 µM | TGI (NCI-H522 lung): > 25 µM | TGI (SF-295 CNS): > 25 µM | TGI (HCT-116 colon): > 25 µM | TGI (MDA-MB-231 breast): > 25 µM | TGI (MALME-3M melanoma): > 25 µM | TGI (A549 NSCLC): > 25 µM | TGI (SNB-75 CNS): > 25 µM | TGI (OVCAR-3 ovarian): > 25 µM | TGI (HOP-92 NSCLC): > 25 µM | TGI (M14 melanoma): > 25 µM | TGI (EKVX NSCLC): > 25 µM | TGI (SK-MEL-5 melanoma): > 25 µM | TGI (HT29 colon): > 25 µM | TGI (HCT-15 colon): > 25 µM | TGI (K-562 leukemia): > 25 µM | TGI (786-0 renal): > 25 µM | TGI (SK-MEL-28 melanoma): > 25 µM | TGI (COLO 205 colon): > 25 µM | TGI (KM12 colon): > 25 µM | TGI (HCC-2998 colon): > 25 µM | TGI (SK-OV-3 ovarian): > 25 µM | TGI (CAKI-1 renal): > 25 µM | TGI (MDA-N): > 25 µM | TGI (OVCAR-4 ovarian): > 25 µM | TGI (CCRF-CEM leukemia): > 25 µM | TGI (NCI-H23 lung): > 25 µM | TGI (OVCAR-5 ovarian): > 25 µM | TGI (MCF7 breast): > 25 µM | TGI (T-47D breast): > 25 µM | TGI (ACHN renal): > 25 µM | TGI (IGROV1 ovarian): > 25 µM | TGI (HOP-62 NSCLC): > 25 µM | TGI (SK-MEL-2 melanoma): > 25 µM | TGI (UACC-62 melanoma): > 25 µM | TGI (PC-3 prostate): > 25 µM | TGI (HS 578T breast): > 25 µM | TGI (NCI-H226 lung): > 25 µM | TGI (RPMI-8226 leukemia): > 25 µM | TGI (BT-549 breast): > 25 µM | TGI (LOX IMVI melanoma): > 25 µM | TGI (SN12C renal): > 25 µM | TGI (MOLT-4 leukemia): > 25 µM | TGI (MDA-MB-435): > 25 µM | TGI (OVCAR-8 ovarian): > 25 µM | TGI (SF-539 CNS): > 25 µM | TGI (SR leukemia): > 25 µM | TGI (A498 renal): > 25 µM | TGI (HL-60(TB) leukemia): > 25 µM | TGI (NCI-H460 lung): > 25 µM | TGI (UACC-257 melanoma): > 25 µM
